pIC50: −log10 of the molar value. ≈ marks a conversion by molar mass, not a printed value. Read-outs that look alike come from different tables or passages of the source.
Assays:
[1] = system: pqsA promoter (PA14 PpqsA-GFPASV); assay: pqsA-GFP reporter expression; type: cell-based, Pseudomonas aeruginosa; conditions: Pseudomonas aeruginosa; for activity at 50 µM: PA14, read-out: % Production pqsA-GFP; for pIC50: PA14, read-out: IC50 pqsA-GFP expression, PA14, 13 concentrations
[2] = system: pyocyanin production in PA14; assay: Pyocyanin production assay; conditions: Pseudomonas aeruginosa; for activity at 50 µM: PA14, 18 h, read-out: % Production Pyocyanin; for pIC50: PA14, read-out: IC50 pyocyanin production
[3] = system: MvfR-regulated small molecules in PA14; assay: Production of HAQs, 2-AA, DHQ and AA in PA14 cultures (LC-MS); conditions: Pseudomonas aeruginosa
[4] = system: PA14 AT/P cells; assay: AT/P cells formation assay in PA14; type: cell-based, Pseudomonas aeruginosa; conditions: for inhibition at 10 µM: Pseudomonas aeruginosa, PA14, 24 h, read-out: inhibition of AT/P cells formation
[5] = system: ΔmvfR biofilm; assay: Biofilm formation of ΔmvfR mutant (off-target); conditions: Pseudomonas aeruginosa, PA14, 24 h, read-out: Biofilm formation, ΔmvfR + compound; PA14 about 100; single replicates (Figure 4c)
[6] = Solubility in iPBS pH 7.4 by HPLC; type: physicochemical; conditions: isotonic phosphate buffer (iPBS), aqueous with cosolvent or surfactant or cyclodextrin, kinetic from dmso stock; iPBS pH 7.4, HPLC; read-out: Solubility (M) in PBS
How it was run: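 Compounds from 10 mM DMSO stock shaken 4 h at room temperature in iPBS pH 7.4 (10 mM PBS, 2.7 mM KCl, 140 mM NaCl, 0.05% Tween), then filtered. Concentration measured by HPLC-UV against a known standard solution; solubility given as ratio of compound in test solution to standard.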

[7] = system: PA14 isogenic mutant ΔmvfR AT/P cells; assay: AT/P cell formation in ΔmvfR mutant (off-target); conditions: Pseudomonas aeruginosa, PA14, 24 h, read-out: AT/P cell formation, ΔmvfR + compound; PA14 about 100; single replicates (Figure 4b)
[8] = system: mvfR mutant constitutively expressing the pqsABCDE operon; type: cell-based; conditions: Pseudomonas aeruginosa, control about 100, single replicates (Figure 4a)
[9] = target: T1, MvfR protein (MvfRC87) (Pseudomonas aeruginosa, UniProt Q9I4X0); type: binding; conditions: SPR
T1 construct: The MvfRC87 protein purified as in Xiao et. al., 2006; made in house
How it was run: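 MvfRC87 amine-coupled to a CM7 chip (3000–5000 RU) and binding measured by SPR. Double-reference-corrected responses 5 s before end of association plotted against concentration, for inhibitor alone and with native ligand PQS, compared with responses calculated for different binding sites.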

[10] = system: 16 MDR P. aeruginosa clinical isolates; assay: Pyocyanin production in MDR clinical isolates; conditions: Pseudomonas aeruginosa, 18 h, Control about 100, replicates
Experimental: The over-day culture was grown to OD600nm 1.5., diluted again at 1:10,000 in 5 mL LB and incubated with 10 μM of the test compound or the vehicle control for 18 hours at 37 °C and 200 rpm in an incubator shaker. After 18 h, 1 mL of culture was centrifuged for 2 min at 20.000 x g. The supernatant was transferred to a new tube, 200 μL of this were loaded in a flat-bottom 96-well plate, and the pyocyanin levels were quantified by measuring at OD690nm in the infinite F200 plate reader using the Magellan software (Tecan, Switzerland). The same procedure was also followed for the pyocyanin production assessment for all the P. aeruginosa clinical isolates assessed in this study. The percent of pyocyanin was calculated compared to the PA14 culture grown in the absence of compounds.
Pyocyanin production was measured in 16 P.
aeruginosa clinical isolates 18hr post-growth in the presence or absence of 10 µM of each NAM
compound. The percent of pyocyanin production was calculated by comparing the same strain grown
in the presence of the vehicle control. b.

[11] = PA14, read-out: % Production 2-AA
[12] = PA14, read-out: % Production AA
[13] = PA14, read-out: % Production DHQ
[14] = PA14, read-out: % Production HHQ
[15] = PA14, read-out: % Production HQNO
[16] = PA14, read-out: % Production PQS
[17] = PA14, read-out: HHQ production inhibition
[18] = PA14, read-out: HQNO production inhibition
[19] = PA14, read-out: PQS production inhibition
[20] = PA14, read-out: inhibition of 2-AA production
[21] = PA14, read-out: inhibition of DHQ production
[22] = read-out: DHQ, ΔmvfR-pqsABCD strain
[23] = read-out: HQNO, ΔmvfR-pqsABCD strain
[24] = read-out: PQS, ΔmvfR-pqsABCD strain
[25] = read-out: Pyocyanin production relative to Control, clinical isolate LGR-4325
[26] = read-out: Pyocyanin production relative to Control, clinical isolate LGR-4326
[27] = read-out: Pyocyanin production relative to Control, clinical isolate LGR-4327
[28] = read-out: Pyocyanin production relative to Control, clinical isolate LGR-4328
[29] = read-out: Pyocyanin production relative to Control, clinical isolate LGR-4330
[30] = read-out: Pyocyanin production relative to Control, clinical isolate LGR-4331 (first section, r117)
[31] = read-out: Pyocyanin production relative to Control, clinical isolate LGR-4331 (second section, r140)
[32] = read-out: Pyocyanin production relative to Control, clinical isolate LGR-4333
[33] = read-out: Pyocyanin production relative to Control, clinical isolate LGR-4343
[34] = read-out: Pyocyanin production relative to Control, clinical isolate LGR-4344
[35] = read-out: Pyocyanin production relative to Control, clinical isolate LGR-4348
[36] = read-out: Pyocyanin production relative to Control, clinical isolate LGR-4356
[37] = read-out: Pyocyanin production relative to Control, clinical isolate LGR-4362
[38] = read-out: Pyocyanin production relative to Control, clinical isolate LGR-4363
[39] = read-out: Pyocyanin production relative to Control, clinical isolate LGR-4364 (first section, r326)
[40] = read-out: Pyocyanin production relative to Control, clinical isolate LGR-4364 (second section, r349)

T1 sequence (Q9I4X0 87-332): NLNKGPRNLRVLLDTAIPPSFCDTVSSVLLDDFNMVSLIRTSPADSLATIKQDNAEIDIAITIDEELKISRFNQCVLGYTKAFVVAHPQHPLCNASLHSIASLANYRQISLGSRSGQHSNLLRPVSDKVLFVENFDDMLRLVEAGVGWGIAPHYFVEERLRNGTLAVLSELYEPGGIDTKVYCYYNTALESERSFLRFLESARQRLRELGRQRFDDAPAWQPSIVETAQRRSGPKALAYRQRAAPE

N#Cc1ccc(NC(=O)CC(=O)Nc2ccc(C#N)cc2)cc1 [D43]
activity at 50 µM [1]: 8% | pIC50 [1]: 6.01 | activity at 50 µM [2]: 8% | pIC50 [2]: 5.86 | activity at 50 µM [3, 11]: 19% | activity at 50 µM [3, 12]: 531% | activity at 50 µM [3, 13]: 34% | activity at 50 µM [3, 14]: 22% | activity at 50 µM [3, 15]: 39% | activity at 50 µM [3, 16]: 24% | inhibition at 50 µM [3, 17]: 89 to 99% | inhibition at 50 µM [3, 18]: 40 to 92% | inhibition at 50 µM [3, 19]: 76 to 97% | inhibition at 50 µM [3, 20]: 82 to 95% | inhibition at 50 µM [3, 21]: 82 to 96% | AT/P cells formation, percentage of control (single replicates) ([4]; PA14, 10 μg mL^−1 meropenem, 10 µM compound, 24 h, control PA14 + vehicle): 39.10% | inhibition at 10 µM [4]: ≥ 51% | activity at 10 µM [5]: 41.4% | solubility at 4 h [6]: 1.1e-05 M (≈ 3.35 µg/mL) | activity at 10 µM [7]: 30.1% | activity at 50 µM [8, 22]: 103% | activity at 50 µM [8, 23]: 91.3% | activity at 50 µM [8, 24]: 99.4% | Response Unit (RU) ([9]; Concentration 1.00E-05 M): 29.2 RU | Response Unit (RU) ([9]; Concentration 1.00E-06 M): 22.5 RU | Response Unit (RU) ([9]; Concentration 1.00E-07 M): 9.9 RU | Response Unit (RU) ([9]; Concentration 1.00E-08 M): 2.7 RU | Response Unit (RU) ([9]; Concentration 3.16E-06 M): 26.7 RU | Response Unit (RU) ([9]; Concentration 3.16E-07 M): 16.5 RU | Response Unit (RU) ([9]; Concentration 3.16E-08 M): 5 RU | activity at 10 µM [10, 25]: 14.5% | activity at 10 µM [10, 26]: 9.84% | activity at 10 µM [10, 27]: 26.2% | activity at 10 µM [10, 28]: 9.98% | activity at 10 µM [10, 29]: 15% | activity at 10 µM [10, 30]: 16.3% | activity at 10 µM [10, 31]: 11.8% | activity at 10 µM [10, 32]: 15.2% | activity at 10 µM [10, 33]: 24.3% | activity at 10 µM [10, 34]: 25.8% | activity at 10 µM [10, 35]: 12.6% | activity at 10 µM [10, 36]: 20.8% | activity at 10 µM [10, 37]: 23.7% | activity at 10 µM [10, 38]: 13.4% | activity at 10 µM [10, 39]: 21.7% | activity at 10 µM [10, 40]: 19.3%

CC(C(=O)Nc1ccc(C#N)cc1)C(=O)Nc1ccc(C#N)cc1 [D80]
activity at 50 µM [1]: 10% | pIC50 [1]: 4.97 | activity at 50 µM [2]: 7% | pIC50 [2]: 5.44 | activity at 50 µM [3, 11]: 16% | activity at 50 µM [3, 12]: 832% | activity at 50 µM [3, 13]: 20% | activity at 50 µM [3, 14]: 8% | activity at 50 µM [3, 15]: 64% | activity at 50 µM [3, 16]: 20% | inhibition at 50 µM [3, 17]: 89 to 99% | inhibition at 50 µM [3, 18]: 40 to 92% | inhibition at 50 µM [3, 19]: 76 to 97% | inhibition at 50 µM [3, 20]: 82 to 95% | inhibition at 50 µM [3, 21]: 82 to 96% | inhibition at 10 µM [4]: ≥ 51% | activity at 10 µM [5]: 42.3% | solubility at 4 h [6]: 2.9e-05 M (≈ 9.23 µg/mL) | activity at 10 µM [7]: 36% | activity at 50 µM ([8]; read-out: 2-AA, ΔmvfR-pqsABCD strain): 101% | activity at 50 µM [8, 22]: 101% | activity at 50 µM ([8]; read-out: HHQ, ΔmvfR-pqsABCD strain): 96.1% | activity at 50 µM [8, 23]: 86.4% | activity at 50 µM [8, 24]: 99.4% | Response Unit (RU) ([9]; Concentration 1.00E-05 M): 35.4 RU | Response Unit (RU) ([9]; Concentration 1.00E-06 M): 22.9 RU | Response Unit (RU) ([9]; Concentration 1.00E-07 M): 7 RU | Response Unit (RU) ([9]; Concentration 1.00E-08 M): 0.6 RU | Response Unit (RU) ([9]; Concentration 3.16E-06 M): 30.6 RU | Response Unit (RU) ([9]; Concentration 3.16E-07 M): 13.9 RU | Response Unit (RU) ([9]; Concentration 3.16E-08 M): 2.6 RU | activity at 10 µM [10, 25]: 40% | activity at 10 µM [10, 26]: 39.5% | activity at 10 µM [10, 27]: 32.3% | activity at 10 µM [10, 28]: 30.6% | activity at 10 µM [10, 29]: 15.3% | activity at 10 µM [10, 30]: 41.5% | activity at 10 µM [10, 31]: 37.9% | activity at 10 µM [10, 32]: 65.7% | activity at 10 µM [10, 33]: 62% | activity at 10 µM [10, 34]: 31.8% | activity at 10 µM [10, 35]: 39.5% | activity at 10 µM [10, 36]: 32.3% | activity at 10 µM [10, 37]: 30.6% | activity at 10 µM [10, 38]: 15.3% | activity at 10 µM [10, 39]: 41.5% | activity at 10 µM [10, 40]: 37.9%

Source: article PMC9428149, “Tackling recalcitrant Pseudomonas aeruginosa infections in critical illness via anti-virulence monotherapy” (Nature Communications, 2022)
